ChEMBL document CHEMBL5291721, “A preclinical secondary pharmacology resource illuminates target-adverse drug reaction associations of marketed drugs” (Nat Commun, 2023)

Legend:
[1] = biological target: T1, Alpha-1A adrenergic receptor (Homo sapiens, UniProt P35348)
T1 sequence (P35348 whole entry): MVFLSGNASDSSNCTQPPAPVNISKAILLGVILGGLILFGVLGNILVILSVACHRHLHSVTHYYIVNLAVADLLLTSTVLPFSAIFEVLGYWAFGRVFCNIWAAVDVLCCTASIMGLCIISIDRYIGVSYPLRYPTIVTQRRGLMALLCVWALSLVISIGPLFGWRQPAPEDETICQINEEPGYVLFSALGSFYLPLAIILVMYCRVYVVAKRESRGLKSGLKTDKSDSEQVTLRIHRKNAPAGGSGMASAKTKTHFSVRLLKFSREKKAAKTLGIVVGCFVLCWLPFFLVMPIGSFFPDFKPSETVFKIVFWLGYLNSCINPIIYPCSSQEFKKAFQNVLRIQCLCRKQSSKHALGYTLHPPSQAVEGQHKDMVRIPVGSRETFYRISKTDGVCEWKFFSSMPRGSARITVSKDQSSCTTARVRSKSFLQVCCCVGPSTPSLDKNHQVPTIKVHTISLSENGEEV

D(1A) dopamine receptor = D(1A) dopamine receptor (Homo sapiens, UniProt P21728)
D(1A) dopamine receptor, sequence (P21728 whole entry): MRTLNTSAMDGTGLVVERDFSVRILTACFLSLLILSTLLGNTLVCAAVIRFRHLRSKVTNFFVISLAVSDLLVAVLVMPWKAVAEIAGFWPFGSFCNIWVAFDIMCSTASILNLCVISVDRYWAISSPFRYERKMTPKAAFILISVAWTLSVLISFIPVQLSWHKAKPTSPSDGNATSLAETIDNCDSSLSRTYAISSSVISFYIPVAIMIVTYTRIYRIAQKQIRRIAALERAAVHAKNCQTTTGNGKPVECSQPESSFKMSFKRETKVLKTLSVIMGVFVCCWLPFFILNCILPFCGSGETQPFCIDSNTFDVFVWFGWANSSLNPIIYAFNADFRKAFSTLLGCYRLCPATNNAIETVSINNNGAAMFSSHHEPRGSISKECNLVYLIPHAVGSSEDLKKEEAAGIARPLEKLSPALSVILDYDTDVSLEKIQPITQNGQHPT

[2] = biological target: T2, Retinoic acid receptor gamma (Homo sapiens, UniProt P13631); assay type: functional, cell-based
T2 sequence (P13631 whole entry): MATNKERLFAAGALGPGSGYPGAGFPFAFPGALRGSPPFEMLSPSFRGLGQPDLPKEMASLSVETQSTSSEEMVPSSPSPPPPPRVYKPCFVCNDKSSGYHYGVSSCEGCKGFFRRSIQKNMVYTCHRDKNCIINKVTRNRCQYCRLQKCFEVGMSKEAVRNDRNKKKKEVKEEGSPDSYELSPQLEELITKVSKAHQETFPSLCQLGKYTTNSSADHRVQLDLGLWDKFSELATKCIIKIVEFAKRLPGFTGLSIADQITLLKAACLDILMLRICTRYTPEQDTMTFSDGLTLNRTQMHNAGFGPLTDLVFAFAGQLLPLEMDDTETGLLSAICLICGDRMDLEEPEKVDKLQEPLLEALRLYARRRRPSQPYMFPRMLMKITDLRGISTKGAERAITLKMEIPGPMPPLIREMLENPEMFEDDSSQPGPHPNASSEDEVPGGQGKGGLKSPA

[3] = biological target: T3, Retinoic acid receptor alpha (Homo sapiens, UniProt P10276); assay type: functional, cell-based
T3 sequence (P10276 whole entry): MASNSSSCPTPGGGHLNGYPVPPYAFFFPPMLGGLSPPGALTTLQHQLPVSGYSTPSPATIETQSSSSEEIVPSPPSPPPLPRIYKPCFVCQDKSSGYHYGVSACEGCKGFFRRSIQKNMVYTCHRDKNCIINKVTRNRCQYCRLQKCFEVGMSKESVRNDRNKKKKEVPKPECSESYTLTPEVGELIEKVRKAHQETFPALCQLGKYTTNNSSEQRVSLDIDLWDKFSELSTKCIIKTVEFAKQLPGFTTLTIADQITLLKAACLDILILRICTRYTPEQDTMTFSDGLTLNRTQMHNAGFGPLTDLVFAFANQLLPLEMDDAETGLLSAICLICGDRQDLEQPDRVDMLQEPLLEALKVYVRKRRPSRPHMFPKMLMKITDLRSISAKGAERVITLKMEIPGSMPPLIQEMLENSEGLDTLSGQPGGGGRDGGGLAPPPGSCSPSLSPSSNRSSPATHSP

[4] = biological target: Beta-1 adrenergic receptor (Homo sapiens, UniProt P08588); assay type: functional, cell-based
Beta-1 adrenergic receptor, sequence (P08588 whole entry): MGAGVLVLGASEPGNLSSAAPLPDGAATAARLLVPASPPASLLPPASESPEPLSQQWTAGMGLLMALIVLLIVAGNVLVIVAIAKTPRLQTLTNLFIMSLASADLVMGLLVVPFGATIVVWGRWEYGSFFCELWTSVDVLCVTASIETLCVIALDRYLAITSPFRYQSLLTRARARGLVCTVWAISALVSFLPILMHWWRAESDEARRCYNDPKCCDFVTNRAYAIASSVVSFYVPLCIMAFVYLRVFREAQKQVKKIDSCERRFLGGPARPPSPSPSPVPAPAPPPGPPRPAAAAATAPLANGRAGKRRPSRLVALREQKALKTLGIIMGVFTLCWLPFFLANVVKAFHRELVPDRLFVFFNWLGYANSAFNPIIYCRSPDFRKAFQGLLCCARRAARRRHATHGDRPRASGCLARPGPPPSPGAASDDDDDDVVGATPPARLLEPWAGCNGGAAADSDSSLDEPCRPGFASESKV

Bile acid receptor = biological target: T4, Bile acid receptor (Homo sapiens, UniProt Q96RI1); assay type: functional
T4 sequence (Q96RI1 whole entry): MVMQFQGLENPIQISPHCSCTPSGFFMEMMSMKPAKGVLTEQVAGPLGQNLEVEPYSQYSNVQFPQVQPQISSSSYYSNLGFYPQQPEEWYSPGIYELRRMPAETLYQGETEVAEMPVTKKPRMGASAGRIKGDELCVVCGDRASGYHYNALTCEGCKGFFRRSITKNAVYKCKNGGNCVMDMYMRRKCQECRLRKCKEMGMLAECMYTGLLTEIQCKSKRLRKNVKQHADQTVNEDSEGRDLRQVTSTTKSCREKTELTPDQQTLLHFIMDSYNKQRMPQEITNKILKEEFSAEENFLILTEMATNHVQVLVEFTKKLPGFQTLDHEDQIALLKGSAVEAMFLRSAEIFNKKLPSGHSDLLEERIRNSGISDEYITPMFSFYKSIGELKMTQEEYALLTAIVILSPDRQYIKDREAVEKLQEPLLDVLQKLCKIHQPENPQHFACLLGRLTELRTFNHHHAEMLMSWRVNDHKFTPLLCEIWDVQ

[5] = biological target: Rod cGMP-specific 3',5'-cyclic phosphodiesterase subunit alpha (Homo sapiens, UniProt P16499); assay type: functional
Rod cGMP-specific 3',5'-cyclic phosphodiesterase subunit alpha, sequence (P16499 whole entry): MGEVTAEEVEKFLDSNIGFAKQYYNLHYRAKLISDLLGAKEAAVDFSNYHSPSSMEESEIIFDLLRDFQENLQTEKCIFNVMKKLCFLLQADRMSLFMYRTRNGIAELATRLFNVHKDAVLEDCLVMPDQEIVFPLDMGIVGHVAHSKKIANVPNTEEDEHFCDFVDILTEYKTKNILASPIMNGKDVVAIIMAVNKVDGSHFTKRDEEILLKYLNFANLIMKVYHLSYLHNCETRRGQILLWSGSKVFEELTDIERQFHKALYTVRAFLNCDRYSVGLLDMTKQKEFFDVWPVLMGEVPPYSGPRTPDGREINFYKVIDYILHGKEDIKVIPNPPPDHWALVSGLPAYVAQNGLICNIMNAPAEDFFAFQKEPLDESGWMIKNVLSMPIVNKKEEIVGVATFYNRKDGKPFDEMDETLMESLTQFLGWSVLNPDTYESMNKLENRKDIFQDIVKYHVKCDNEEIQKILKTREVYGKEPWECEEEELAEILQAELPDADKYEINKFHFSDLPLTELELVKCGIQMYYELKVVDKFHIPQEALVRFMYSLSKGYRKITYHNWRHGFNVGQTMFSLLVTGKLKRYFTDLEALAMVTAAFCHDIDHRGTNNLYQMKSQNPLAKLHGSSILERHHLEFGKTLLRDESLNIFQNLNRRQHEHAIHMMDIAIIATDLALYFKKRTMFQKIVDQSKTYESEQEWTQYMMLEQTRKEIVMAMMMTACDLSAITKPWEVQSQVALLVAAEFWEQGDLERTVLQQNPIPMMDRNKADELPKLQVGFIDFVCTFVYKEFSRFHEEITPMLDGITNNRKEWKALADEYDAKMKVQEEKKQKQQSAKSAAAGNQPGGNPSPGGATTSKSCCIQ

D(1B) dopamine receptor = D(1B) dopamine receptor (Homo sapiens, UniProt P21918)
D(1B) dopamine receptor, sequence (P21918 whole entry): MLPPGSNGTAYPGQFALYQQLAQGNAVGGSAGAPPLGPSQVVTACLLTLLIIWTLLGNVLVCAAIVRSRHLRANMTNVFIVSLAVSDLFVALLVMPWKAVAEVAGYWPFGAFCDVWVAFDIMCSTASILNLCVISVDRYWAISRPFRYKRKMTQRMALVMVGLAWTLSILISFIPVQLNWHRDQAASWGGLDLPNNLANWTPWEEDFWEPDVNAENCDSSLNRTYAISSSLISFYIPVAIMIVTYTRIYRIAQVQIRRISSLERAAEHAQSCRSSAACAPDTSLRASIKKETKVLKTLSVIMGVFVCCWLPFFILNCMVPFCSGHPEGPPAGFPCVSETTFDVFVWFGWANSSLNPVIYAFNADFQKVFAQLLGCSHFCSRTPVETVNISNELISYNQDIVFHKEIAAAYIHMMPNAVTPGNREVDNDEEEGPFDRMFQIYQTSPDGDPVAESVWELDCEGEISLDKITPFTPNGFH

Substance-K receptor = biological target: T5, Substance-K receptor (Homo sapiens, UniProt P21452)
T5 sequence (P21452 whole entry): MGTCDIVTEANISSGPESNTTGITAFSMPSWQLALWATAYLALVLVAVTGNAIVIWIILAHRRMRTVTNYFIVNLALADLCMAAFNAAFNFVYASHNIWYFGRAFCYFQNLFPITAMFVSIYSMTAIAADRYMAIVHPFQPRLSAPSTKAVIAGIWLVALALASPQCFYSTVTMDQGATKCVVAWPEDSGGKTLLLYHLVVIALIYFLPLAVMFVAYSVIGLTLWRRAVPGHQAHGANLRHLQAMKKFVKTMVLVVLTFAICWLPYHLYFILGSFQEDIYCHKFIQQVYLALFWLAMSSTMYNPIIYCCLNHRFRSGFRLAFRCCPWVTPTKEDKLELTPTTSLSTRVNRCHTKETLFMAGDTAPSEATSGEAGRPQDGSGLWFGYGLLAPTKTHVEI

[6] = biological target: 5-hydroxytryptamine receptor 2B (Homo sapiens, UniProt P41595)
5-hydroxytryptamine receptor 2B, sequence (P41595 whole entry): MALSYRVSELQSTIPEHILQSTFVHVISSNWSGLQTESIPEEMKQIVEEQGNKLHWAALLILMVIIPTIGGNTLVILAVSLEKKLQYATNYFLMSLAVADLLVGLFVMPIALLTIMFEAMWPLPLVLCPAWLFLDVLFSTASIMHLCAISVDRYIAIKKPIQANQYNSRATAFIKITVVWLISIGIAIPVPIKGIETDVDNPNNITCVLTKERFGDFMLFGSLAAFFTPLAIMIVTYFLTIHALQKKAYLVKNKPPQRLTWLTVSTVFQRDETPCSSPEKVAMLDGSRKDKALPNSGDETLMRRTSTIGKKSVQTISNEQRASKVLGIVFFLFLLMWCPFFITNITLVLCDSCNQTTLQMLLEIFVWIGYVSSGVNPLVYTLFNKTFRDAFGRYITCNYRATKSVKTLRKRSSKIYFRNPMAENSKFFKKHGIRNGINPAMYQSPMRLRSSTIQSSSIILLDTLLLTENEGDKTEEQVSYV
Note: assay procedure not described here.

Q: Which AC50 [1] does the source give for `O=C(Nc1cccc2c(=O)cc(-c3nnn[nH]3)oc12)c1ccc(OCCCCc2ccccc2)cc1` here?
A: The AC50 was 13.3 µM.

Q: And the AC50 (D(1A) dopamine receptor)?
A: Its AC50 is 2.88 µM.

Q: How did the AC50 [2] turn out when `CC(/C=C1\SC(=S)N(CC(=O)O)C1=O)=C\c1ccccc1` was run?
A: Its AC50 is over 30 µM.

Q: What about the AC50 [3] of the same compound?
A: Its AC50 is over 30 µM.

Q: And the AC50 [4]?
A: Its AC50 is over 30 µM.

Q: What about the AC50 (Bile acid receptor) of the same compound?
A: Its AC50 is over 30 µM.

Q: `CC1(C)S[C@@H]2[C@H](NC(=O)[C@H](N)c3ccc(O)cc3)C(=O)N2[C@H]1C(=O)O` [AMOXICILLIN] was tested. Which AC50 [2] did it give?
A: The AC50 was over 30 µM.

Q: What about the AC50 [5] of the same compound?
A: Its AC50 is over 10 µM.

Q: What about the AC50 [3] of the same compound?
A: Its AC50 is over 30 µM.

Q: And the AC50 (D(1B) dopamine receptor)?
A: The AC50 was over 10 µM.

Q: What about the AC50 (Substance-K receptor) of the same compound?
A: The AC50 was over 10 µM.

Q: What about the AC50 (Bile acid receptor) of the same compound?
A: The AC50 was over 30 µM.

Q: How did the AC50 [5] turn out when `COC(=O)[C@H](c1ccccc1Cl)N1CCc2sccc2C1` [CLOPIDOGREL] was run?
A: Its AC50 is over 10 µM.

Q: What about the AC50 (D(1B) dopamine receptor) of the same compound?
A: Its AC50 is over 10 µM.

Q: What about the AC50 (Substance-K receptor) of the same compound?
A: Its AC50 is over 10 µM.

Q: For `CN1C[C@H](C(=O)N[C@]2(C)O[C@@]3(O)[C@@H]4CCCN4C(=O)[C@H](Cc4ccccc4)N3C2=O)C[C@@H]2c3cccc4[nH]cc(c34)C[C@H]21` [DIHYDROERGOTAMINE], which AC50 [6] is on record?
A: The AC50 was 0.0444 µM.

Q: With `CCC(=O)O[C@@H](O[P@](=O)(CCCCc1ccccc1)CC(=O)N1C[C@H](C2CCCCC2)C[C@H]1C(=O)O)C(C)C` [FOSINOPRIL] as the compound, how does the AC50 [1] read?
A: Its AC50 is over 30 µM.

Q: And the AC50 (D(1A) dopamine receptor)?
A: The AC50 was 21.6 µM.

Q: `Nc1nc(O)c2ncn(COC(CO)CO)c2n1` [GANCICLOVIR] was tested. Which AC50 [4] did it give?
A: The AC50 was over 30 µM.

Q: What does the source list for `Cc1cnc(NC(=O)C2=C(O)c3ccccc3S(=O)(=O)N2C)s1` [MELOXICAM]?
A: AC50 [5]: > 10 µM; AC50 (D(1B) dopamine receptor): > 10 µM; AC50 (Substance-K receptor): > 10 µM

Q: For `CC[C@@H](CO)NC(=O)[C@@H]1C=C2c3cccc4[nH]cc(c34)C[C@H]2N(C)C1` [METHYLERGONOVINE], which AC50 [6] is on record?
A: The AC50 was 0.0054 µM.

Q: Which results are given for `CN(C)c1cc(CNCC(C)(C)C)c(O)c2c1C[C@H]1C[C@H]3[C@H](N(C)C)C(O)=C(C(N)=O)C(=O)[C@@]3(O)C(O)=C1C2=O` [OMADACYCLINE]?
A: AC50 [1]: > 30 µM; AC50 (D(1A) dopamine receptor): > 30 µM

Q: Which results are given for `CNC(=O)c1cc(Oc2ccc(NC(=O)Nc3ccc(Cl)c(C(F)(F)F)c3)c(F)c2)ccn1` [REGORAFENIB]?
A: AC50 [2]: > 30 µM; AC50 [3]: > 30 µM; AC50 [1]: > 30 µM; AC50 (Bile acid receptor): > 30 µM; AC50 (D(1A) dopamine receptor): 4.15 µM

Q: Which results are given for `CCOc1cc(CC(=O)N[C@@H](CC(C)C)c2ccccc2N2CCCCC2)ccc1C(=O)O` [REPAGLINIDE]?
A: AC50 [2]: > 30 µM; AC50 [3]: > 30 µM; AC50 (Bile acid receptor): > 30 µM

Q: `CCCN(CCC)CCc1cccc2c1CC(=O)N2` [ROPINIROLE] was tested. Which AC50 [6] did it give?
A: Its AC50 is 13.4 µM.

Q: With `CC(C)N(CCCCOCC(=O)NS(C)(=O)=O)c1cnc(-c2ccccc2)c(-c2ccccc2)n1` [SELEXIPAG] as the compound, how does the AC50 [4] read?
A: The AC50 was over 30 µM.

Q: What does the source list for `CCCCNc1ccc(C(=O)OCCN(C)C)cc1` [TETRACAINE]?
A: AC50 [5]: > 10 µM; AC50 (D(1B) dopamine receptor): > 10 µM; AC50 (Substance-K receptor): > 10 µM

Q: With `CN1CCN(CCCN2c3ccccc3Sc3ccc(S(=O)(=O)N(C)C)cc32)CC1` [THIOPROPERAZINE] as the compound, how does the AC50 [1] read?
A: The AC50 was 0.003 µM.

Q: And the AC50 (D(1A) dopamine receptor)?
A: Its AC50 is over 30 µM.

Q: Which AC50 [4] does the source give for `Cc1cc(CC(=O)O)n(C)c1C(=O)c1ccc(Cl)cc1` [ZOMEPIRAC] here?
A: Its AC50 is over 30 µM.
